Test results as given in the NIST ThermoML archive (doi:10.1016/j.tca.2009.06.015).

Assay: xn = mol fraction of the nth substance listed
Conditions: 101 kPa, Liquid; for mass density: Vibrating tube method; for viscosity: Capillary tube (Ostwald / Ubbelohde) method

CCCC(C)O (stereo not given) [pentan-2-ol] + CC#N
Conditions | mass density, 293.15 K [kg/m3] | mass density, 298.15 K [kg/m3] | mass density, 303.15 K [kg/m3] | mass density, 308.15 K [kg/m3] | viscosity, 298.15 K [mPa·s] | viscosity, 303.15 K [mPa·s] | viscosity, 308.15 K [mPa·s]
x2 = 0 | – | 805.24 | 801.13 | 796.94 | 3.478 | – | –
x2 = 0.116 | – | 802.61 | 798.39 | 794.1 | 2.17 | 1.474 | 1.296
x2 = 0.1727 | – | 801.25 | 796.93 | 792.65 | 1.804 | 1.288 | 1.15
x2 = 0.2827 | – | 798.55 | 794.05 | 789.63 | 1.362 | 1.069 | 0.9576
x2 = 0.3546 | – | 796.68 | 792.08 | 787.6 | 1.125 | 0.9367 | 0.846
x2 = 0.4458 | – | 794.17 | 789.54 | 784.92 | 0.9044 | 0.7975 | 0.7168
x2 = 0.5366 | – | 791.6 | 786.91 | 782.17 | 0.7392 | 0.6615 | 0.6057
x2 = 0.6488 | – | 788.28 | 783.41 | 778.55 | 0.5884 | 0.5492 | 0.5051
x2 = 0.7671 | – | 784.54 | 779.52 | 774.47 | 0.4715 | 0.4429 | 0.4111
x2 = 0.8793 | – | 780.88 | 775.68 | 770.45 | 0.391 | 0.3617 | 0.3442
x2 = 0.9578 | 783.59 | 778.28 | 772.96 | 767.48 | 0.3537 | 0.3311 | 0.3202
